According to patent US4533666A, “6-Phenyl-2,3-bis-(4-methoxyphenyl)-pyridine derivatives having anti-inflammatory activity” (Eli Lilly and Company, priority 1983, dated 1985):

Columns and labels:
[1] = mouse writhing assay (acetic acid-induced); assay type: in vivo, mouse (Cox standard strain albino male mice); settings: oral gavage in corn oil-acacia emulsion (5%), three hours before acetic acid (0.60 percent) i.p., five mice per group; for ED50: Mus musculus, po, 3 h
From the text: The analgesic activity of a number of compounds provided by this invention has been determined in the standard mouse writhing assay. Writhing, which is characterized by contraction of the abdominal musculature, extension of the hindlegs, and rotation of the trunk, was induced in Cox standard strain albino male mice. The mice, weighing 18-24 grams, were fasted overnight and given the test compound by gavage in a corn oil-acacia emulsion (5%) three hours before writhing was induced by the intraperitoneal administration of acetic acid (0.60 percent). Each treatment group consisted of five mice. The total number of writhes for the treatment group was determined during a 10-minute observation starting five minutes after acetic acid administration. […] Table I which follows presents typical test results obtained with certain of the compounds of this invention. The results in the mouse writhing assay are presented as the effective oral (p.o.) dose in mg./kg. of the tested compound required to inhibit induced writhing in the test animals by fifty percent (ED50).

[2] = Established adjuvant-induced arthritis test in rats, uninjected paw volume inflammation; assay type: in vivo, rat (male Lewis-Wistar rats); settings: Days 14 through 30, AUC difference

| SMILES | ED50 [1] [mg/kg] | % Inhibition of Uninjected Paw Volume Inflammation ([2]; 5 mg./kg. p.o. × 15) [%] | % Inhibition of Uninjected Paw Volume Inflammation ([2]; 10 mg./kg. p.o. × 15) [%] | % Inhibition of Uninjected Paw Volume Inflammation ([2]; 25 mg./kg. p.o. × 15) [%] | further results |
| --- | --- | --- | --- | --- | --- |
| COc1ccc(-c2ccc(-c3ccc(F)cc3)nc2-c2ccc(OC)cc2)cc1 [Example 1, 6-(4-Fluorophenyl)-2,3-bis(4-methoxyphenyl)pyridine] | 3.5 | 70 | 80 | – | – |
| COc1ccc(-c2ccc(-c3ccccc3)nc2-c2ccc(OC)cc2)cc1 [Example 2, 6-Phenyl-2,3-bis(4-methoxyphenyl)pyridine] | 2.7 | – | – | – | % Inhibition of Uninjected Paw Volume Inflammation ([2]; 25 mg./kg. p.o. × 15, Average of two experiments): 40% |
| COc1ccc(-c2ccc(-c3ccc(Cl)cc3)nc2-c2ccc(OC)cc2)cc1 [Example 3, 6-(4-Chlorophenyl)-2,3-bis(4-methoxyphenyl)pyridine] | 0.78 | 30 | 58 | – | – |
| COc1ccc(-c2ccc(-c3ccc(F)cc3)nc2-c2ccc(OC)cc2)cc1 [Example 6, 6-(4-Fluorophenyl)-2,3-bis(4-methoxyphenyl)pyridine 4-methylbenzenesulfonate] | – | – | – | – | Mouse Writhing ED50 ([1]; 180 min, 4-methylbenzenesulfonate, 180 min): 4.2 mg./kg. p.o.; % Inhibition of Uninjected Paw Volume Inflammation ([2]; 5 mg./kg. p.o. × 15, 4-methylbenzenesulfonate): 69%; % Inhibition of Uninjected Paw Volume Inflammation ([2]; 10 mg./kg. p.o. × 15, 4-methylbenzenesulfonate): 71% |
| COc1ccc(-c2ccc(-c3ccc(C(F)(F)F)cc3)nc2-c2ccc(OC)cc2)cc1 [Example 7, 6-(4-Trifluoromethylphenyl)-2,3-bis(4-methoxyphenyl)pyridine] | 8.9 | – | – | 33 | – |
| COc1ccc(-c2ccc(-c3ccc(Br)cc3)nc2-c2ccc(OC)cc2)cc1 [Example 4, 6-(4-Bromophenyl)-2,3-bis(4-methoxyphenyl)pyridine] | 4.1 | – | 27 | 48 | – |
